Columns and labels:
Assay type in all cases: cell-based
[1] = molecular target: T1, wild-type Androgen Receptor (AR-wt) (Homo sapiens (Human), UniProt P10275); test: LNCaP-AR-wt AG reporter assay (agonist mode); conditions: for EC50 / LNCaP-AR-wt AG pEC50: agonist mode, pEC50 = −Log10(EC50 in Molar); for EC50: read-out: LNCaP-AR-wt AG pEC50 (converted); for Emax: maximum % stimulation (agonist response) over the tested concentration range, read-out: LNCaP-AR-wt AG MAX % Stim
[2] = molecular target: T2, F876L mutant Androgen Receptor (AR-F876L) (Homo sapiens (Human), UniProt P10275, F877L); test: LNCaP-AR-F876L AG reporter assay (agonist mode); conditions: for EC50 / LNCaP-AR-F876L AG pEC50: agonist mode, pEC50 = −Log10(EC50 in Molar); for EC50: read-out: LNCaP-AR-F876L AG pEC50 (converted); for Emax: maximum % stimulation (agonist response) over the tested concentration range, read-out: LNCaP-AR-F876L AG MAX % Stim
T2 sequence (P10275 whole entry F877L): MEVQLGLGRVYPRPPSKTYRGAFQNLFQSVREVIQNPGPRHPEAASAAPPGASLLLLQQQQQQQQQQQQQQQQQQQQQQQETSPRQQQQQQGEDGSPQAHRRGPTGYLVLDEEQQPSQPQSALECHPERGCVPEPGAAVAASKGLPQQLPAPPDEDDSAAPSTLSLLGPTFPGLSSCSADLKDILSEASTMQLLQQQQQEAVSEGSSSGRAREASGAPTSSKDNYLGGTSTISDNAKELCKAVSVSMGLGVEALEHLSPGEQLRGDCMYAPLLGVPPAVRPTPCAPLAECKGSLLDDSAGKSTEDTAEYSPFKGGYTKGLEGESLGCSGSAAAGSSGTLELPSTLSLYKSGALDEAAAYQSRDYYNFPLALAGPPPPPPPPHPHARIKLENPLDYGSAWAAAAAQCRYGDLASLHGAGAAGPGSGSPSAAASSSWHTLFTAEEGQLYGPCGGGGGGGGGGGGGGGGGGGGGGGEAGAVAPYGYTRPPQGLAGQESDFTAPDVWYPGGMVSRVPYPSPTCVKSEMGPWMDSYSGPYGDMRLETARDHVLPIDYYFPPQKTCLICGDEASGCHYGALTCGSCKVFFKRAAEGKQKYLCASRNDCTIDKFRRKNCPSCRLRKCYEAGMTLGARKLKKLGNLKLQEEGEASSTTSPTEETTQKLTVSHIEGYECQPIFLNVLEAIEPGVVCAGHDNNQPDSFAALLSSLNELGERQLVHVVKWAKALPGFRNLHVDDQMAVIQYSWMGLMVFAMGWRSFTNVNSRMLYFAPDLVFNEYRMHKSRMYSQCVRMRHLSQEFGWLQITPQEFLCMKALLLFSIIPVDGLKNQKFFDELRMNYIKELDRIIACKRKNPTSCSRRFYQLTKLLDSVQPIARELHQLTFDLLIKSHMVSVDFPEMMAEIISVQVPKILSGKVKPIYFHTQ

[3] = molecular target: T1, wild-type Androgen Receptor (AR-wt); test: LNCaP-AR-wt ANT reporter assay (antagonist mode); conditions: for IC50 / LNCaP-AR-wt ANT pIC50: antagonist mode, pIC50 = −Log10(IC50 in Molar); for IC50: read-out: LNCaP-AR-wt ANT pIC50 (converted); for Emax: maximum % inhibition of R1881 control response over the tested concentration range, read-out: LNCaP-AR-wt ANT MAX % Inh
[4] = molecular target: T2, F876L mutant Androgen Receptor (AR-F876L); test: LNCaP-AR-F876L ANT reporter assay (antagonist mode); conditions: for IC50 / LNCaP-AR-F876L ANT pIC50: antagonist mode, pIC50 = −Log10(IC50 in Molar); for IC50: read-out: LNCaP-AR-F876L ANT pIC50 (converted); for Emax: maximum % inhibition of R1881 control response over the tested concentration range, read-out: LNCaP-AR-F876L ANT MAX % Inh

T1 sequence (P10275 whole entry): as the sequence (P10275 whole entry F877L) above, with L877F counted along it

EC50 [1] | Emax [1] | EC50 [2] | Emax [2] | IC50 [3] | Emax [3] | IC50 [4] | Emax [4] | Compound | LNCaP-AR-wt AG pEC50 [1] | LNCaP-AR-F876L AG pEC50 [2] | LNCaP-AR-wt ANT pIC50 [3] | LNCaP-AR-F876L ANT pIC50 [4]
> 15100 nM | 0.7% | > 15100 nM | 0.5% | 316 nM | 100% | 145 nM | 100% | CC(C)(C)OC(=O)N1CCN(Cc2ccc(N3C(=S)N(c4cnc(C#N)c(C(F)(F)F)c4)C(=O)C34CCC4)cc2)CC1 [Cpd 47, tert-butyl 4-[[4-[6-[6-cyano-5-(trifluoromethyl)-3-pyridyl]-5-oxo-7-thioxo-6,8-diazaspiro[3.4]octan-8-yl]phenyl]methyl]piperazine-1-carboxylate] | – | – | – | –
> 15100 nM | 2.3% | > 15100 nM | 1.7% | 53.7 nM | 98% | 24.5 nM | 101% | N#CCN1CCC(Oc2ccc(N3C(=S)N(c4cnc(C#N)c(Cl)c4)C(=O)C34CCC4)cc2)CC1 [Cpd 51, 3-chloro-5-[8-[4-[[1-(cyanomethyl)-4-piperidyl]oxy]phenyl]-5-oxo-7-thioxo-6,8-diazaspiro[3.4]octan-6-yl]pyridine-2-carbonitrile] | – | – | – | –
> 15100 nM | 0.4% | > 15100 nM | 0.1% | 631 nM | 84.5% | 676 nM | 85.2% | CC(C)(C)OC(=O)N1CC(F)(F)CC1COc1ccc(N2C(=S)N(c3cnc(C#N)c(C(F)(F)F)c3)C(=O)C23CCC3)cc1 (centres unmarked) [Cpd 56, tert-butyl 2-[[4-[6-[6-cyano-5-(trifluoromethyl)-3-pyridyl]-5-oxo-7-thioxo-6,8-diazaspiro[3.4]octan-8-yl]phenoxy]methyl]-4,4-difluoro-pyrrolidine-1-carboxylate] | – | – | – | –
> 15100 nM | 0.2% | > 15100 nM | 3.3% | 67.6 nM | 101% | 55 nM | 98.4% | C=CCN1CCC(Oc2ccc(N3C(=S)N(c4cnc(C#N)c(Cl)c4)C(=O)C34CCC4)cn2)CC1 [Cpd 89, 5-[8-[6-[(1-allyl-4-piperidyl)oxy]-3-pyridyl]-5-oxo-7-thioxo-6,8-diazaspiro[3.4]octan-6-yl]-3-chloro-pyridine-2-carbonitrile] | – | – | – | –
> 15100 nM | 0.5% | > 15100 nM | 0.2% | 174 nM | 101% | 72.4 nM | 99.7% | C=CCN1CCC(Oc2ccc(N3C(=S)N(c4cnc(C#N)c(C)c4)C(=O)C34CCC4)cn2)CC1 [Cpd 99, 5-[8-[6-[(1-allyl-4-piperidyl)oxy]-3-pyridyl]-5-oxo-7-thioxo-6,8-diazaspiro[3.4]octan-6-yl]-3-methyl-pyridine-2-carbonitrile] | – | – | – | –
> 15100 nM | 0.3% | > 15100 nM | 0.2% | 132 nM | 101% | 91.2 nM | 100% | CC(C)(C)OC(=O)NC1C(C)(C)C(Oc2ccc(N3C(=S)N(c4cnc(C#N)c(C(F)(F)F)c4)C(=O)C34CCC4)cc2)C1(C)C (centres unmarked) [Cpd 110, tert-butyl N-[3-[4-[6-[6-cyano-5-(trifluoromethyl)-3-pyridyl]-5-oxo-7-thioxo-6,8-diazaspiro[3.4]octan-8-yl]phenoxy]-2,2,4,4-tetramethyl-cyclobutyl]carbamate] | – | – | – | –
> 15100 nM | 0% | > 15100 nM | 0.9% | 97.7 nM | 102% | 112 nM | 99.4% | C#CCN1CC(Oc2ccc(N3C(=S)N(c4cnc(C#N)c(C(F)(F)F)c4)C(=O)C34CCC4)cc2)C1 [Cpd 117, 5-(8-oxo-5-(4-((1-(prop-2-yn-1-yl)azetidin-3-yl)oxy)phenyl)-6-thioxo-5,7-diazaspiro[3.4]octan-7-yl)-3-(trifluoromethyl)picolinonitrile] | – | – | – | –
> 15100 nM | 0.1% | > 15100 nM | 0.8% | 490 nM | 101% | 676 nM | 93.7% | CC(C)(C)OC(=O)N1CCc2cc(N3C(=S)N(c4cnc(C#N)c(C(F)(F)F)c4)C(=O)C34CCC4)ccc2C1 [Cpd 118, tert-butyl 6-[6-[6-cyano-5-(trifluoromethyl)-3-pyridyl]-5-oxo-7-thioxo-6,8-diazaspiro[3.4]octan-8-yl]-3,4-dihydro-1H-isoquinoline-2-carboxylate] | – | – | – | –
> 15100 nM | 0.2% | > 15100 nM | 1.1% | 200 nM | 100% | 339 nM | 101% | CC(=O)N1CCc2cc(N3C(=S)N(c4cnc(C#N)c(C(F)(F)F)c4)C(=O)C34CCC4)ccc2C1 [Cpd 120, 5-(5-(2-acetyl-1,2,3,4-tetrahydroisoquinolin-6-yl)-8-oxo-6-thioxo-5,7-diazaspiro[3.4]octan-7-yl)-3-(trifluoromethyl)picolinonitrile] | – | – | – | –
> 15100 nM | -0.1% | > 15100 nM | 0.5% | 138 nM | 97.9% | 129 nM | 99.8% | CC(C)(C)OC(=O)N1CCC(n2cc3cc(N4C(=S)N(c5cnc(C#N)c(C(F)(F)F)c5)C(=O)C45CCC5)ccc3n2)CC1 [Cpd 121, tert-butyl 4-[5-[6-[6-cyano-5-(trifluoromethyl)-3-pyridyl]-5-oxo-7-thioxo-6,8-diazaspiro[3.4]octan-8-yl]indazol-2-yl]piperidine-1-carboxylate] | – | – | – | –
> 15100 nM | 0.3% | > 15100 nM | 0.7% | 282 nM | 98% | 282 nM | 96.4% | CC(C)(C)OC(=O)N1CCC(Cn2cc3cc(N4C(=S)N(c5cnc(C#N)c(C(F)(F)F)c5)C(=O)C45CCC5)ccc3n2)CC1 [Cpd 122, tert-Butyl 4-[[5-[6-[6-cyano-5-(trifluoromethyl)-3-pyridyl]-5-oxo-7-thioxo-6,8-diazaspiro[3.4]octan-8-yl]indazol-2-yl]methyl]piperidine-1-carboxylate] | – | – | – | –

Compound | EC50 [1] | Emax [1] | EC50 [2] | Emax [2] | IC50 [3] | Emax [3] | IC50 [4] | Emax [4] | LNCaP-AR-wt AG pEC50 [1] | LNCaP-AR-F876L AG pEC50 [2] | LNCaP-AR-wt ANT pIC50 [3] | LNCaP-AR-F876L ANT pIC50 [4]
COC(=O)C1CCC(N2C(=S)N(c3cnc(C#N)c(C(F)(F)F)c3)C(=O)C23CCC3)CC1 (centres unmarked) [Cpd 57, Methyl 4-[6-[6-cyano-5-(trifluoromethyl)-3-pyridyl]-5-oxo-7-thioxo-6,8-diazaspiro[3.4]octan-8-yl]cyclohexanecarboxylate] | > 15100 nM | 0.3% | > 15100 nM | 0.3% | 490 nM | 100% | 200 nM | 99.1% | – | – | – | –
CC(C)(C)OC(=O)N1C2CCC1C(F)C(Oc1ccc(N3C(=S)N(c4cnc(C#N)c(C(F)(F)F)c4)C(=O)C34CCC4)cc1)C2 (centres unmarked) [Cpd 85, tert-butyl 3-[4-[6-[6-cyano-5-(trifluoromethyl)-3-pyridyl]-5-oxo-7-thioxo-6,8-diazaspiro[3.4]octan-8-yl]phenoxy]-4-fluoro-8-azabicyclo[3.2.1]octane-8-carboxylate] | – | -0.1% | – | 0.6% | – | 88.3% | – | 85.8% | <4.82 | <4.82 | 6.46 | 6.37
CC(C)(C)OC(=O)N1C2CCC1CC(c1ccc(N3C(=S)N(c4cnc(C#N)c(C(F)(F)F)c4)C(=O)C34CCC4)cc1)C2 (centres unmarked) [Cpd 113, tert-butyl 3-[4-[6-[6-cyano-5-(trifluoromethyl)-3-pyridyl]-5-oxo-7-thioxo-6,8-diazaspiro[3.4]octan-8-yl]phenyl]-8-azabicyclo[3.2.1]octane-8-carboxylate] | – | 0.3% | – | 1.8% | – | 89% | – | 83.6% | <4.82 | <4.82 | 6.35 | 6.26
CN1C2CCC1CC(c1ccc(N3C(=S)N(c4cnc(C#N)c(C(F)(F)F)c4)C(=O)C34CCC4)cc1)C2 (centres unmarked) [Cpd 114, 5-(5-(4-(8-methyl-8-azabicyclo[3.2.1]octan-3-yl)phenyl)-8-oxo-6-thioxo-5,7-diazaspiro[3.4]octan-7-yl)-3-(trifluoromethyl)picolinonitrile] | > 15100 nM | -0.1% | > 15100 nM | 0.3% | 2690 nM | 102% | 1020 nM | 101% | – | – | – | –
N#Cc1ncc(N2C(=O)C3(CCC3)N(c3ccc(C4=CC5CCC(C4)N5)cc3)C2=S)cc1C(F)(F)F (centres unmarked) [Cpd 116, 5-[8-[4-(8-azabicyclo[3.2.1]oct-3-en-3-yl)phenyl]-5-oxo-7-thioxo-6,8-diazaspiro[3.4]octan-6-yl]-3-(trifluoromethyl)pyridine-2-carbonitrile] | – | 0.5% | – | 0.8% | – | 102% | – | 102% | <4.82 | <4.82 | 5.96 | 6.01

Source: patent US10981926B2 (Janssen Pharmaceutica NV, priority 2016, dated 2021)
